How the values were obtained:
collagenase = biological target: T1, collagenase (Homo sapiens, UniProt P03956); details: for IC50: collagenase, 37°, 16 hours, pH 7.5, 14C collagen
T1 sequence (P03956 100-469): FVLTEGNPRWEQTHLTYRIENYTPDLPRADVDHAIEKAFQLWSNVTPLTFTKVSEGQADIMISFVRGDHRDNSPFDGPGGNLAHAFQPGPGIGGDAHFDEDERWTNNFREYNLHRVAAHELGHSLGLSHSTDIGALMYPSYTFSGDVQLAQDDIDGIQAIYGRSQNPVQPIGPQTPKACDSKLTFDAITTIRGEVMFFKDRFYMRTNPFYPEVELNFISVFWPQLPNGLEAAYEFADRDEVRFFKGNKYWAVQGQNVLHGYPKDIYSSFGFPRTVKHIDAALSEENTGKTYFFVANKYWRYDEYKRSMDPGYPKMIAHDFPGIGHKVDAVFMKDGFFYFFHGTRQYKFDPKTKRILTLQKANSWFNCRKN
Source text: The collagen was acetylated ^14 C collagen prepared by the method of Cawston and Murphy (Methods in Enzymology, 80, 711, 1981), hereby incorporated by reference. The samples were centrifuged to sediment undigested collagen and an aliquot of the radioactive supernatant removed for assay on a scintillation counter as a measure of hydrolysis.

stromelysin = stromelysin (Homo sapiens, UniProt P08254); experiment: Stromelysin inhibition activity (14C-acetylated casein digestion, Cawston et al); assay type: biochemical
stromelysin, sequence (P08254 100-477): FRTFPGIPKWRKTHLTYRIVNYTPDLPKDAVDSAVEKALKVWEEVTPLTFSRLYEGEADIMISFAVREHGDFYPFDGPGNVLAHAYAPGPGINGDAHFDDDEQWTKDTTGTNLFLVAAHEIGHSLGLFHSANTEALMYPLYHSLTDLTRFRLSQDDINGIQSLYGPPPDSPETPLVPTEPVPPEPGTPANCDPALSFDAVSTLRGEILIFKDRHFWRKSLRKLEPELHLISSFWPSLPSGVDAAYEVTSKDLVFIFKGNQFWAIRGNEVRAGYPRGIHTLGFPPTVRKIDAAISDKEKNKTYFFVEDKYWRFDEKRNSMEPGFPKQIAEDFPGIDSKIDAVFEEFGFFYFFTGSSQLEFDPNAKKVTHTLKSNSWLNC

Row | Structure (SMILES) | collagenase-inhibiting activity (in words) (collagenase; qualitative statement) | protoglycanase-inhibiting activity (in words) (stromelysin; qualitative statement, protoglycanase = stromelysin (b9)) | IC50 (collagenase) [nM] | IC50 (stromelysin; stromelysin, 37°, 16 hours, pH 7.5, 14C acetylated casein) [nM]
1 | CNC(=O)[C@H](Cc1ccccc1)NC(=O)[C@H](CC(C)C)[C@H](CSc1cccs1)C(=O)NO [Example 2, [4-(N-Hydroxyamino)-2R-isobutyl-3S-(thienylthiomethyl)succinyl]-L-phenylalanine-N-methylamide] | good | good | – | –
2 | CNC(=O)[C@H](Cc1ccccc1)NC(=O)[C@H](CC(C)C)[C@H](CS)C(=O)NO [Example 5, [4-(N-Hydroxyamino)-2R-isobutyl-3S-(mercaptomethyl)succinyl]-L-phenylalanine-N-methylamide] | – | – | 3 | –
3 | CNC(=O)[C@H](Cc1ccccc1)NC(=O)[C@H](CC(C)C)[C@H](CSc1ccccc1)C(=O)NO [Example 1, [4-(N-Hydroxyamino)-2R-isobutyl-3S-(phenylthiomethyl)-succinyl]-L-phenylalanine-N-methylamide] | – | – | 20 | 10
